# What was measured:
# PDE IV = test: Isolated enzyme PDE IV inhibition (HL60 cells); type: biochemical; details: Ki PDE IV HL60 at (1 μM); pH 7.5, 30° C.; read-out: approximate Ki, PDE IV HL60
# Protocol: The potency and selectivity of the compounds of the invention was determined using a battery of distinct PDE isoenzymes as follows:
# The enzymes were purified to kinetic homogeneity using standard chromatographic techniques.
# Phosphodiesterase activity was assayed as follows. The reaction was conducted in 150 μl of standard mixture containing (final concentrations): 50 mM TES-NaOH buffer (pH 7.5), 10 mM MgCl2, 0.1 μM [^3 H]-cAMP and vehicle or various concentrations of the test compounds. The reaction was initiated by addition of enzyme and conducted at 30° C. for between 5 to 30 mins. The reaction was terminated by addition of 50 μl 2% trifluoroacetic acid containing [^14 C]-5'AMP for determining recovery of the product. An aliquot of the sample was then applied to a column of neutral alumina and the [^3 H]-cAMP eluted with 10 ml 0.1 TES-NaOH buffer (pH8). The [^3 H]-5'-AMP product was eluted with 2 ml 2M NaOH into a scintillation vial containing 10 ml of scintillation cocktail. Recovery of [^3 H]-5'AMP was determined using the [^14 C]-5'AMP and all assays were conducted in the linear range of the reaction.
# papillary muscle = details: selective PDE IV / PDE III reference inhibitors; background statement; cited from earlier work
# right atrial muscle = details: selective PDE IV / PDE III reference inhibitors; background statement; cited from earlier work
# [1] = non-specific PDE inhibitor; cited from earlier work
SMILES,Ki (PDE IV) [nM],"direct effects on papillary muscle (inotropic), reference inhibitors (papillary muscle)","direct effects on atria (chronotropic), reference inhibitors (right atrial muscle)",cardiovascular changes [1]
"COc1ccc(NC(=O)c2ccccc2)cc1OC1CCCC1 [Example 1, N-Benzoyl-3-cyclopentyloxy-4-methyloxyaniline]",~391,–,–,–
"COc1ccc(NC(=O)c2ccccc2[N+](=O)[O-])cc1OC1CCCC1 [Example 3, 3-Cyclopentyloxy-4-methyloxy-N-(2-Nitrobenzoyl)aniline]",~179,–,–,–
Cc1[nH]c(=O)c(C#N)cc1-c1ccncc1 [milrinone],–,positive chronotropic and inotropic effects,positive chronotropic and inotropic effects,–
COc1ccc(C2CNC(=O)C2)cc1OC1CCCC1 (stereo not shown) [rolipram],–,do not have any direct effects,do not have any direct effects,–
Cn1c(=O)c2[nH]cnc2n(C)c1=O [theophylline],–,–,–,significant cardiovascular changes such as tachycardia
